Where two headings read alike, the source gives them in different places.
How the values were obtained:
luciferase reporter ZIKV = test: luciferase-based ZIKV reporter assay in Huh7 cells; assay type: cell-based; conditions: Zika virus; for inhibition at 10 µM: Huh-7, 72 h, read-out: ZIKV Reporter Assay Inhibition (%) at 10 µM
Procedure: (§1) In the current study, we continued to use our previously reported luciferase-based ZIKV reporter assay as a primary antiviral screening, by which newly synthesized compounds were tested (at 10 µM) along with NITD008 (Figure 1, at 1 µM), a flavivirus RNA-dependent RNA polymerase (RdRp) inhibitor, and NSC 12155 (Figure 1, at 10 µM), a flavivirus NS5 methyltransferase (MTase) inhibitor, as reference compounds (Table 1). […] For active compounds (>60% titer-reduction), dose-response experiments were performed to determine EC50 (half maximal effective concentration, a concentration that is needed to cause half of the maximum possible pharmacological effect) and CC50 (half cytotoxic concentration, a concentration that is required to reduce cell viability by 50%) values. For selected compounds, EC50 values in the reporter assay were also measured.
(§2) The ZIKV reporter assay and titer-reduction assay were performed as previously reported. Briefly, Huh7 cells (1.5 × 10^4) were seeded in a 96-well plate and inoculated with a luciferase reporter ZIKV (MOI=0.2). After two hours, the cells were treated with medium containing the compound (10 µM). After 3 days post-infection, the cells were lysed, the Nanoluc signal was detected using the Nano-Glo® luciferase assay (Promega), then measured using a Neo 2 plate reader (BioTek, Winooski, VT, USA). For titer-reduction assays, 1.5 × 10^5 Huh7 cell were seeded in a 24-well plate. Next day, the cells were inoculated with ZIKV for two hours. The inoculum was replaced with compound-containing medium (8.5 µM) and incubated for 3 days. Supernatants were collected and viral titers were estimated by plaque assay.

[1] = Cell viability (CC50) assay, MTS-based; conditions: human; for viability at 3 days, 10 µM: 10 µM compound, Huh7 cells, read-out: ZIKV Reporter Assay Viability (%) at 10 µM
Procedure: as §1
The cell viability assay was performed in Huh7 cells as previously reported. Briefly, non-infected Huh7 cells were treated with the testing compounds for 3 days. Viability was measured by absorbance at […] using the MTS-based tetrazolium reduction CellTiter 96 Aqueous Non-Radioactive cell proliferation assay (Promega).

ZIKV = ZIKV titer reduction assay (plaque assay of supernatants) in Huh7 cells; assay type: cell-based; conditions: Zika virus; for inhibition at 8.5 µM: Huh-7, 72 h, read-out: Titer Reduction Assay % at 8.5 µM
Procedure: as §1, §2

[2] = 8.5 µM compound, Huh7 cells, 3 days
[3] = non-infected Huh7 cells, 3 days, read-out: CC50
[4] = Huh-7, Huh7 cells, read-out: Titer Reduction Assay EC50

SMILES	inhibition at 10 µM (luciferase reporter ZIKV) [%]	viability at 3 days, 10 µM ([1]; 3 days) [%]	inhibition at 8.5 µM (ZIKV; [2]) [%]	other results
Nc1ncnc2c1c(COc1ccccc1Cl)nn2Cc1ccc([N+](=O)[O-])cc1 [Compound 29, 3-((2-Chlorophenoxy)methyl)-1-(4-nitrobenzyl)-1H-pyrazolo[3,4-d]pyrimidin-4-amine]	34	94		
Cc1cccc(OCc2nn(Cc3ccc([N+](=O)[O-])cc3)c3ncnc(N)c23)c1 [Compound 27, 1-(4-Nitrobenzyl)-3-((m-tolyloxy)methyl)-1H-pyrazolo[3,4-d]pyrimidin-4-amine]	71	82	53	
Nc1ccc(Cn2nc(COc3ccccc3)c3c(N)ncnc32)cc1 [Compound 12, 1-(4-Aminobenzyl)-3-(phenoxymethyl)-1H-pyrazolo[3,4-d]pyrimidin-4-pmine]	0	95		
COC(=O)c1cccc(Cn2nc(COc3ccccc3)c3c(N)ncnc32)c1 [Compound 17, Methyl 3-((4-Amino-3-(phenoxymethyl)-1H-pyrazolo[3,4-d]pyrimidin-1-yl)methyl)benzoate]	88	38		
Nc1ncnc2c1c(COc1ccccc1)cn2Cc1ccc([N+](=O)[O-])cc1 [Compound 5, 7-(4-Nitrobenzyl)-5-(phenoxymethyl)-7H-pyrrolo[2,3-d]pyrimidin-4-amine]	62	82	94	CC50 at 3 days [1, 3]: 58 µM; EC50 (ZIKV; [4]): 4.3 µM
Cc1ccccc1OCc1nn(Cc2ccc([N+](=O)[O-])cc2)c2ncnc(N)c12 [Compound 26, 1-(4-Nitrobenzyl)-3-((o-tolyloxy)methyl)-1H-pyrazolo[3,4-d]pyrimidin-4-amine]	60	77		
Nc1cc(Cn2nc(COc3ccccc3)c3c(N)ncnc32)ccn1 [Compound 22, 1-((2-Aminopyridin-4-yl)methyl)-3-(phenoxymethyl)-1H-pyrazolo[3,4-d]pyrimidin-4-amine]	67	36		
Nc1ncnc2c1c(COc1ccccc1)nn2Cc1ccc(Cl)nc1 [Compound 21, 1-((6-Chloropyridin-3-yl)methyl)-3-(phenoxymethyl)-1H-pyrazolo[3,4-d]pyrimidin-4-amine]	82	64		EC50 (luciferase reporter ZIKV; Huh-7, read-out: ZIKV Reporter Assay EC50): 3.5 µM; CC50 at 3 days [1]: 25 µM; inhibition at 8.5 µM (ZIKV): 74%; EC50 (ZIKV; Huh-7, read-out: Titer Reduction Assay EC50): 5.2 µM
Nc1ccc(Cn2nc(COc3ccccc3)c3c(N)ncnc32)cn1 [Compound 23, 1-((6-Aminopyridin-3-yl)methyl)-3-(phenoxymethyl)-1H-pyrazolo[3,4-d]pyrimidin-4-amine]	49	82	20	
CS(=O)(=O)c1ccc(Cn2nc(COc3ccccc3)c3c(N)ncnc32)cc1 [Compound 14, 1-(4-(Methylsulfonyl)Benzyl)-3-(phenoxymethyl)-1H-pyrazolo[3,4-d]pyrimidin-4-amine]	58	93	52	
Nc1ncnc2c1c(COc1ccc(Cl)cc1)nn2Cc1ccc([N+](=O)[O-])cc1 [Compound 31, 3-((4-Chlorophenoxy)methyl)-1-(4-nitrobenzyl)-1H-pyrazolo[3,4-d]pyrimidin-4-amine]	60	94	40	
Nc1cccc(Cn2nc(COc3ccccc3)c3c(N)ncnc32)c1 [Compound 11, 1-(3-Aminobenzyl)-3-(phenoxymethyl)-1H-pyrazolo[3,4-d]pyrimidin-4-amine]	0	89		
Nc1ncnc2c1c(CNc1ccccc1)cn2Cc1ccc([N+](=O)[O-])cc1 [Compound 4, 7-(4-Nitrobenzyl)-5-((phenylamino)methyl)-7H-pyrrolo[2,3-d]pyrimidin-4-amine]	91	40		
Cc1ccc(OCc2nn(Cc3ccc([N+](=O)[O-])cc3)c3ncnc(N)c23)cc1 [Compound 28, 1-(4-Nitrobenzyl)-3-((p-tolyloxy)methyl)-1H-pyrazolo[3,4-d]pyrimidin-4-amine]	65	85	34	
Nc1ncnc2c1c(COc1ccccc1)nn2Cc1cccc([N+](=O)[O-])c1 [Compound 9, 1-(3-Nitrobenzyl)-3-(phenoxymethyl)-1H-pyrazolo[3,4-d]pyrimidin-4-amine]	90	37		
NC(=O)c1ccc(Cn2nc(COc3ccccc3)c3c(N)ncnc32)cc1 [Compound 19, 4-((4-Amino-3-(phenoxymethyl)-1H-pyrazolo[3,4-d]pyrimidin-1-yl)methyl)benzamide]	63	77	22	
CC(C)(C)OC(=O)Nc1ccc(Cn2nc(COc3ccccc3)c3c(N)ncnc32)cn1 [Compound 25, Tert-Butyl (5-((4-Amino-3-(phenoxymethyl)-1H-pyrazolo[3,4-d]pyrimidin-1-yl)methyl)pyridin-2-yl)carbamate]	68	40		
COC(=O)c1ccc(Cn2nc(COc3ccccc3)c3c(N)ncnc32)cc1 [Compound 18, Methyl 4-((4-amino-3-(phenoxymethyl)-1H-pyrazolo[3,4-d]pyrimidin-1-yl)methyl)benzoate]	6	95		
Nc1ncnc2c1c(COc1ccccc1)nn2Cc1ccc(C(F)(F)F)cc1 [Compound 13, 3-(Phenoxymethyl)-1-(4-(trifluoromethyl)benzyl)-1H-pyrazolo[3,4-d]pyrimidin-4-amine]	68	86	73	CC50 at 3 days [1, 3]: > 100 µM; EC50 (ZIKV; [4]): 6.5 µM
Nc1ncnc2c1c(COc1ccccc1)nn2Cc1ccccc1 [Compound 7, 1-Benzyl-3-(phenoxymethyl)-1H-pyrazolo[3,4-d]pyrimidin-4-amine]	0	99		
Nc1ncnc2c1c(COc1ccccc1)nn2Cc1ccc([N+](=O)[O-])cc1 [Compound 6, 1-(4-Nitrobenzyl)-3-(phenoxymethyl)-1H-pyrazolo[3,4-d]pyrimidin-4-amine]	65	82	65	CC50 at 3 days [1, 3]: 39 µM; EC50 (ZIKV; [4]): 5.1 µM
COC(=O)c1ccccc1Cn1nc(COc2ccccc2)c2c(N)ncnc21 [Compound 16, Methyl 2-((4-Amino-3-(phenoxymethyl)-1H-pyrazolo[3,4-d]pyrimidin-1-yl)methyl)benzoate]	0	95		
Nc1ncnc2c1c(COc1ccccc1)nn2Cc1ccccc1[N+](=O)[O-] [Compound 8, 1-(2-Nitrobenzyl)-3-(phenoxymethyl)-1H-pyrazolo[3,4-d]pyrimidin-4-amine]	9	103		
CC(C)(C)OC(=O)Nc1cc(Cn2nc(COc3ccccc3)c3c(N)ncnc32)ccn1 [Compound 24, Tert-Butyl (4-((4-Amino-3-(phenoxymethyl)-1H-pyrazolo[3,4-d]pyrimidin-1-yl)methyl)pyridin-2-yl)carbamate]	62	36		
Nc1ccccc1Cn1nc(COc2ccccc2)c2c(N)ncnc21 [Compound 10, 1-(2-Aminobenzyl)-3-(phenoxymethyl)-1H-pyrazolo[3,4-d]pyrimidin-4-amine]	0	99		
N#Cc1ccc(Cn2nc(COc3ccccc3)c3c(N)ncnc32)cc1 [Compound 15, 4-((4-Amino-3-(phenoxymethyl)-1H-pyrazolo[3,4-d]pyrimidin-1-yl)methyl)benzonitrile]	37	99		
Nc1ncnc2c1c(COc1ccccc1)nn2Cc1ccnc(Cl)c1 [Compound 20, 1-((2-Chloropyridin-4-yl)methyl)-3-(phenoxymethyl)-1H-pyrazolo[3,4-d]pyrimidin-4-amine]	88	39		
Nc1ncnc2c1c(COc1cccc(Cl)c1)nn2Cc1ccc([N+](=O)[O-])cc1 [Compound 30, 3-((3-Chlorophenoxy)methyl)-1-(4-nitrobenzyl)-1H-pyrazolo[3,4-d]pyrimidin-4-amine]	52	93	11	

— paper PMC9502836, “Zika Virus Inhibitors Based on a 1,3-Disubstituted 1H-Pyrazolo[3,4-d]pyrimidine-amine Scaffold” (Molecules, 2022)
